# In paper PMC9369419 (International Journal of Molecular Sciences, 2022):
# Tests used:
# GluA2 = target: T1, GluA2 (Rattus norvegicus, UniProt P19491); assay: Radioligand binding at recombinant homomeric GluA2 in Sf9 membranes; conditions: recombinant rat homomeric receptor, [3H]-(RS)-AMPA, mean ± SEM
# T1 construct: made in house; host or cells: Sf9 insect cells (membranes)
# Procedure: Ligand binding affinities at recombinant rat homomeric GluA2, GluK1−3, and GluK5 were determined as previously detailed. […] The filters were dried at 70 °C for 1 h, and 50 μL/well Microscint 20 (PerkinElmer, Waltham, MA, USA) was added. Radioactivity was detected with a TopCounter (PerkinElmer, Waltham, MA, USA). GluA2 and GluK5 assays were filtered on GF/C type filters using Millipore 12-well filtration manifolds (Merck Life Science, Søborg, Denmark) and washed twice with ice-cold assay buffer. Filters were placed in pony vials (PerkinElmer, Waltham, MA, USA), 3 mL of Ultima Gold scintillation fluid (PerkinElmer, Waltham, MA, USA) was added, and DPM (disintegrations per minute) were determined using a TriCarb 2900 scintillation counter (PerkinElmer, Waltham, MA, USA).
# All competition curves (n ≥ 3 per ligand) were determined in triplicate. Data were analyzed using GraphPad Prism 6 (GraphPad Software, San Diego, CA, USA) to determine ligand affinity (Ki) and Hill coefficient (nH) using the one-site Ki and four-parameter logistics equations, respectively.
# mGluR2 = mGluR2 functional assay (Ca2+/Fluo-4, mGlu2/Gqo5-HEK293 cells); assay type: cell-based; conditions: 0.1 mM compound
# Procedure: Culture media, serum, antibiotics and buffers for cell culture were obtained from Invitrogen (Paisley, UK). The Fluo-4/AM dye was obtained from Molecular Probes (Eugene, OR, USA), and Glu was purchased from Sigma-Aldrich. The construction and basic pharmacological characterization of the stable mGlu2/Gqo5-HEK293 cell line has been described previously.
# Cell culture and Ca^2+/Fluo-4 Assay. The mGlu2/Gqo5-HEK293 cells were cultured in Dulbecco’s Modified Eagle Medium-Glutamax-I supplemented with 100 U/mL penicillin, 100 µg/mL streptomycin, 5% dialyzed fetal bovine serum, 100 µg/mL zeocin and 1 mg/mL G418. The cells were split into poly-D-lysine-coated black 96-well plates with clear bottoms (6 × 10^4 cells/well). The following day, the culture medium was aspirated, and the cells were incubated in 50 µL assay buffer (Hanks Buffered Salt Solution containing 20 mM HEPES, 1 mM CaCl2, 1 mM MgCl2 and 2.5 mM probenecid, pH 7.4) supplemented with […] Fluo–4/AM at 37 °C for 1 h. […] The 96-well plate was assayed in a FLEXStation (Molecular Devices, Crawley, UK) measuring emission (in fluorescence units (FU)) at 525 nm caused by excitation at 485 nm before and up to 90 s after the addition of 33.3 µL agonist-containing assay buffer. […]
# human mGluR4 = target: T2, human mGluR4 (Homo sapiens, UniProt Q14833); assay: mGluR4 functional assay (IP1 accumulation, HEK293A cells); assay type: cell-based; conditions: 0.1 mM compound
# T2 construct: expressed in transfected cells; host or cells: HEK293A (transient, Lipofectamine 2000)
# Source text: Dulbecco’s modified Eagle medium (DMEM), dialyzed fetal bovine serum (FBS), Opti-MEM, penicillin-streptomycin, Dulbecco’s phosphate-buffered saline (DPBS), Hank’s balanced salt solution (HBSS) and Lipofectamine 2000 were purchased from Thermo Fisher Scientific (Waltham, MA, USA). An IP-One Gq kit was purchased from Cisbio (Codolet, France). Quisqualate and poly-D-lysine (PDL) hydrobromide were purchased from Sigma-Aldrich (St. Louis, MO, USA). Falcon clear, tissue culture-treated 96-well plates were from Corning Inc. (Corning, NY, USA). OptiPlate-384 white, opaque 384-well plates were from PerkinElmer, (Waltham, MA, USA). L-AP4 and LY341495 were purchased from Tocris Bioscience (Bristol, UK). The HEK293A cells were a kind gift from Dr. Asuka Inoue (Tohoku University, Sendai, Japan). Plasmids encoding human mGluR4 and Flag-tagged human mGluR5 were kind gifts from Jesper M. Mathiesen (University of Copenhagen, København, Denmark). […]
# Cell culture and IP1 Assay. […] IP1 accumulation was measured on an EnVision 2104 Multilabel Reader using a 340/60 nm excitation filter and 615/8.5 nm (donor) and 665/7.5 nm (acceptor) emission filters. HTRF ratios were calculated as the ratio of acceptor over donor emission (665 nm/615 nm) and converted to IP1 concentrations with an IP1 standard curve according to the instructions from the kit manufacturer.
# T2 sequence (Q14833 33-912): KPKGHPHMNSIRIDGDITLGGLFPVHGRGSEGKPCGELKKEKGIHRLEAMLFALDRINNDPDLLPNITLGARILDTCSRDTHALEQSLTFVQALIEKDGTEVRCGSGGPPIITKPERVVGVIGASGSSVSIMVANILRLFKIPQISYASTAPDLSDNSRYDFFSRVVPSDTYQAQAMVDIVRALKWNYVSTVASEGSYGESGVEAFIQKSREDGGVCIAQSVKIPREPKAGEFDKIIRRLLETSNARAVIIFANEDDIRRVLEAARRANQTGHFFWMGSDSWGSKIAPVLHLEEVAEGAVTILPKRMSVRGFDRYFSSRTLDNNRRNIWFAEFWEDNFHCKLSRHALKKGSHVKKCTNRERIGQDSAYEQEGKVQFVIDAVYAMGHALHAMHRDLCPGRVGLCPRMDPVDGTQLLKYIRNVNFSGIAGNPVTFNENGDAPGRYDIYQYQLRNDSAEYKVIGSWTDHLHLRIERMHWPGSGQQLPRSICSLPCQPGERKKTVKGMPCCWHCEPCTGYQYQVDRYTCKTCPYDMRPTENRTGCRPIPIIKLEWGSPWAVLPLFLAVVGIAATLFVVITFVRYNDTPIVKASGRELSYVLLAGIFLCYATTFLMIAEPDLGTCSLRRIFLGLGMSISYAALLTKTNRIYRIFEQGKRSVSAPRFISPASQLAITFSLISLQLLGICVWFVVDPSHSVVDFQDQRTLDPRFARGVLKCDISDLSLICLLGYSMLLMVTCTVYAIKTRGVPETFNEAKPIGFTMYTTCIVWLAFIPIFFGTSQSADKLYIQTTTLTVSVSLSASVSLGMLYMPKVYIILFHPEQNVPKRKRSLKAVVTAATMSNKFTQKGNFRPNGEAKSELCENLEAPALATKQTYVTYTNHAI
# T1 sequence (P19491 22-883): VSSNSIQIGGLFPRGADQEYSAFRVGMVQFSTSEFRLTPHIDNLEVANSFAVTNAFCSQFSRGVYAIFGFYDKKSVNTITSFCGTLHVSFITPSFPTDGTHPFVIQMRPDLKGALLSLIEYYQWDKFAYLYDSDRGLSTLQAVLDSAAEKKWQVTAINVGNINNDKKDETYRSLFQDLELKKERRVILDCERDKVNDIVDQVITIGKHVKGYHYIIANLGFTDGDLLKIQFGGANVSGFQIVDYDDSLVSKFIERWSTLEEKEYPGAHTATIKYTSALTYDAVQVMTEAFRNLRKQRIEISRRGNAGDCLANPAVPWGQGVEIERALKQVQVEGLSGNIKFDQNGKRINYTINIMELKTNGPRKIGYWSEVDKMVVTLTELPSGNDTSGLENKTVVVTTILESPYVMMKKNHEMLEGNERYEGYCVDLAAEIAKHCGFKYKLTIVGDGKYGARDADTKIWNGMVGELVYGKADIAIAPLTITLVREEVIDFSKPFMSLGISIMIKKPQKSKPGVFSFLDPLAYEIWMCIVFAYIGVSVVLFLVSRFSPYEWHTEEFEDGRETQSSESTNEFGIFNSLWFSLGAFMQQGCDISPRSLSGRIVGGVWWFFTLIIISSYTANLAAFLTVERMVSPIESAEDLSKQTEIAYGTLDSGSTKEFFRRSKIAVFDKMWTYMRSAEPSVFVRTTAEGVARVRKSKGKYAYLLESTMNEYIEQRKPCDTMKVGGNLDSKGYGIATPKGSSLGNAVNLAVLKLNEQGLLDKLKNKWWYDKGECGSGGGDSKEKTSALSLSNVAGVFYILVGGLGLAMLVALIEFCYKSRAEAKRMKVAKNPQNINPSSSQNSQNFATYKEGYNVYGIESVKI
structure (smiles),measurement,setting,value
O=C(Nn1c(=O)c(=O)[nH]c2cc(C#Cc3cnc4cccnn34)ccc21)c1ccccc1 [Compound 28],Ki,GluA2,> 100 µM
same,agonist or antagonist activity at mGluR2,mGluR2,neither agonistic nor antagonistic
same,agonist or antagonist activity at mGluR4,human mGluR4,neither agonistic nor antagonistic
